This is an account of results in patent publication US11457624B2, “Adjuvant compositions for plant treatment chemicals” (CORBET SCIENTIFIC, LLC, priority 2016, dated 2022).

In experiment [1] the test system is woody shrubs and mixed grasses. To be noted: general statement, no source given; cited from earlier work.
The subject of experiment [2] is bacterial spot (Xanthomonas euvesicatoria) on pepper. Nature of the experiment: Bacterial spot on pepper, field trial (disease severity, AUDPC). It is filed as in vivo. How it is done: (§1) Field studies were conducted at the University of Florida, Southwest Florida Research and Education Center, Immokalee, Fla. For pepper trials, average monthly high and low temperatures were 98° F. and 70° F. in month one; 94° F. and 63° F. in month two; and 94° F. and 51° F. in month three; rainfall totaled 11.02, 0.95, and 2.41 inches for the same monthly periods, respectively. For squash trials, average monthly high and low temperatures were 93° F. and 45° F. in month one; 96° F. and 55° F. in month two; and 96° F. and 55° F. in month three; rainfall totaled 2.00, 3.35, and 5.59 inches for the same monthly periods, respectively.
(§2) In all trials, seedlings were transplanted into Immokalee fine sand on day 0. Treatments were arranged in a complete randomized block treatment design with four replicates. For pepper trials, ‘Capistrano’ seedlings were arranged in plots comprising 10 plants in a single row spaced 10 inches apart within a 36 inch wide row with 5 feet between each plot and 12 feet center to center between rows. For squash trials, four week old ‘Dixie’ plants were arranged in plots comprising eight plants spaced 3 feet apart with a 27 foot row and with 10 feet between each plot.
(§3) Each treatment formulation was spray applied. For pepper trials, treatment formulations were applied using a backpack CO2 sprayer at 40 psi with a single hollow-cone nozzle at 30 gal/A. Silicon was applied as sodium metasilicate nonahydrate (Na2SiO3.9H2O). For squash trials, treatment formulations were applied with a high clearance sprayer 2 mph and at 200 psi. A double drop boom equipped with six nozzles delivered a spray volume of 90 gal/A for tomato plants or 80 gal/A for squash plants.
For pepper trials, a suspension of inoculum of bacterial spot containing strains of several races was applied at day 22 and new inoculum was introduced periodically throughout the remainder of the trial.
(§4) For each trial, disease severity was assessed by visually estimating the percentage of foliage with symptoms of disease. For pepper trials, plants were examined for symptoms of bacterial spot. For squash trials, plants were examined for powdery mildew. The area under the disease progress curve (AUDPC) was calculated from disease severity ratings. In some trials, fruit was harvested and evaluated for the amount of marketable fruit produced per plot. Data were analyzed within the statistical program of ARM 9.1 (pepper trials) or ARM 9.0 (tomato and squash trials) by ANOVA and means separated by LSD.
Transplanted Capsicum annuum ‘Capistrano’ pepper seedlings were grouped into one of six treatment groups. Group one was an untreated control. The remaining five groups were spray treated with formulations that differed in their chemical compositions (Table 7).
plants on days 14, 21, 28, 35, 42, 49, 56, 64, 71, 77, and 84. Plants were inoculated with a bacterial suspension (Xanthomonas euvesicatoria) on day 22 and periodically throughout the remainder of the trial. […]

Experiment [3] deals with Capsicum annuum Capistrano pepper plants. Nature of the experiment: Pepper harvest data, field trial. The class given is in vivo. How it is done: as §1, §2, §3, §4
Fruit was harvested on days 61 and 83.

Where [4] appears, read: sprays A-K, rates as in Table 7.

SMILES strings stand for the structures.

As for `CC(C)C1(C)N=C(c2ncccc2C(=O)O)NC1=O` (stereo not shown) [Imazapyr], the “time normally required to begin to see an effect on grassy plants” value in experiment [1] is listed as 2-5 months.

Regarding `O.O.O.O.O.O.O.O.O.O=[Si]([O-])[O-].[Na+].[Na+]` [Silicon, sodium metasilicate nonahydrate], the “AUDPC (area under the disease progress curve)” value in experiment [2] (calculated from disease severity ratings) is reported as 518.42 ab. The “Disease Severity Day 41” value in experiment [2] (sprays A-K (Day 14-84), rates as in Table 7, inoculated day 22) is reported as 10.3 a percentage of symptomatic foliage. Moreover, in experiment [2] (setting [4]), the “Disease Severity Day 47” value is recorded as 21.5 a percentage of symptomatic foliage, the “Disease Severity Day 58” value is 21.3 ab percentage of symptomatic foliage, the “Disease Severity Day 61” value is reported as 15 ab percentage of symptomatic foliage and the “Disease Severity Day 71” value is 22.5 ab percentage of symptomatic foliage. Also, in experiment [3] (Day 61), the “Marketable Fruit in Pound per Plot” value was determined as 2.9 a Pound per Plot and the “Number of Marketable Fruit per Plot” value was 12 a per Plot. Also, in experiment [3] (Day 83), the “Marketable Number of Fruit per Plot” value is 26.3 a per Plot, the “Marketable fruit weight per plot” value worked out at 7.38 a Pound per Plot, the “Non-Marketable Fruit in Pound per Plot” value came to 0.35 a Pound per Plot and the “Non-Marketable Fruit per Plot” value came out at 1 ab per Plot.
